Consider 2 compounds from PMC8509428, “The Phenoxyalkyltriazine Antagonists for 5-HT6 Receptor with Promising Procognitive and Pharmacokinetic Properties In Vivo in Search for a Novel Therapeutic Approach to Dementia Diseases” (International Journal of Molecular Sciences, 2021).

Like-named read-outs stand apart in the source and are kept apart here.

One data set concerns the target T1, 5-HT2A receptor (Homo sapiens, UniProt P28223).
T1 construct: expressed in transfected cells; host or cells: CHO-K1
The data set can be described thus: Functional assay for 5-HT2A receptor (aequorin, CHO-K1 cells). The data set is classed as cell-based.

Data set [1] concerns Salmonella Typhimurium TA100. The data set is classed as cell-based.
Text: The used Salmonella Typhimurium TA100 strain has base pair substitution (hisG46 mutation, which target is GGG). […] The occurrence of revertants was visualized by pH indicator dye which was present in the bacterial medium.
The subject of data set [2] is neuroblastoma SH-SY5Y cells. Kind of data set: Neurotoxicity in SH-SY5Y (MTS and LDH assays). The data set is classed as cell-based, human. The settings on record: 100 μM, 48 h, vs control cells. The procedure:
Human neuroblastoma cell line SH-SY5Y (ATCC® no. CRL-2266™) was used for neurotoxicity evaluation. […] To perform dose–response analysis, 2-fold serial dilutions (12 points) were prepared. Treatment with compounds was performed for 48 h. After the incubation time, 100μL of culture medium was transferred to black well plates to examined membrane integrity using the CytoTox-ONE™ Homogeneous Membrane Integrity Assay (Promega, Madison, WI, USA) following the manufacturer’s protocol. Briefly, a volume of 100 µL CytoTox-ONE™ reagent was added to each well and carefully mixed under gentle shaking. […] The plate was incubated at room temperature for 15 min and the fluorescence was then recorded at an excitation wavelength of 560 nm and an emission wavelength of 590 nm using the microplate reader EnSpire (PerkinElmer, Waltham, MA, USA). […] Cytotoxicity is expressed as a percentage relative to the positive control, which is assumed to be responsible for 100% LDH release.
The cell viability was examined using an MTS-based [3-(4,5-dimethylthiazol-2-yl)-5-(3-carboxymethoxyphenyl)-2-(4-sulfophenyl)-2 H tetrazolium] […] After incubation time, formazan product turnover absorbance was measured at 490 nm using the microplate reader EnSpire (PerkinElmer, Waltham, MA, USA). […]
For orientation: Formazan colour is commonly taken as a measure of viable cells.

For a further data set, the system named is SH-SY5Y cells. The data set can be described thus: Intracellular ROS, DCFH-DA assay (neuroprotection). The settings on record: SH-SY5Y neuroblastoma cells. The data set is classed as cell-based, human. The procedure:
ROS measurement was assayed by 2′,7′-Dichlorofluorescin diacetate (DCFH-DA, Sigma D6883). […] Briefly, SH-SY5Y cells (4 × 10^3 cells/well) were seeded in a black-sided, clear-bottom 384-well plate (Life Technologies, Warsaw, Poland) in DMEM without phenol red (Life Technologies, Warsaw, Poland) supplemented with 5% FBS and cultured for 24 h. The next day, the medium was removed, the cells were washed once with HBSS and treated for 45 min with non-fluorescent dye DCFH-DA (final concentration 25 μM, freshly prepared in warm HBSS). […] After that, toxic agents were added: H2O2 (200 μM), oxaliplatin (OXA, 25 μM) and rotenone (ROT, 32.5 μM) and the cells were incubated for 5 h. In our preliminary experiments, different concentration of toxic agents was tested to choose the convenient one that leads to 50% cell death. As a positive control, the cells were incubated alone with toxic agents. As a vehicle control, the cells were incubated with HBSS with 0.1% DMSO. In the presence of ROS, the non-fluorescent dye DCFH-DA is oxidized, producing fluorescent dichlorofluorescein (DCF). Fluorescence was measured at Ex/Em = 485/535 nm using the microplate reader EnSpire.

In a further data set the test system is rats. Kind of data set: Exploratory activity measured in the EPM test. The format is in vivo, rat. The settings on record: mean ± SEM. The procedure: The experiment was performed using an EPM apparatus (details see above). Total ambulation (the total distance covered by a rat, and ambulation along X and Y axis) was taken to discern drug effects on general activity from those on open-arm exploration, during a 5-min test period (i.e., the time equal to the observation period in the EPM test). Rats’ behavior was not videotaped during the test.

For a further data set, the target named is human 5-HT6R. The settings on record: ± SD; read-out: Ki 5-HT6 (converted); cited from earlier work.
Data set [3] addresses human serotonin 5-HT6 receptor (Homo sapiens, UniProt P50406). The data set can be described thus: Functional assay for 5-HT6 receptor (cAMP, 1321N1 cells).
Where [4] appears, read: 1321-N1, read-out: 5-HT6 Antagonist Mode Emax.
The mark [5] stands for this setting: 1321-N1, read-out: 5-HT6R Agonist Mode Emax.

Sequence of human serotonin 5-HT6 receptor (P50406 whole entry): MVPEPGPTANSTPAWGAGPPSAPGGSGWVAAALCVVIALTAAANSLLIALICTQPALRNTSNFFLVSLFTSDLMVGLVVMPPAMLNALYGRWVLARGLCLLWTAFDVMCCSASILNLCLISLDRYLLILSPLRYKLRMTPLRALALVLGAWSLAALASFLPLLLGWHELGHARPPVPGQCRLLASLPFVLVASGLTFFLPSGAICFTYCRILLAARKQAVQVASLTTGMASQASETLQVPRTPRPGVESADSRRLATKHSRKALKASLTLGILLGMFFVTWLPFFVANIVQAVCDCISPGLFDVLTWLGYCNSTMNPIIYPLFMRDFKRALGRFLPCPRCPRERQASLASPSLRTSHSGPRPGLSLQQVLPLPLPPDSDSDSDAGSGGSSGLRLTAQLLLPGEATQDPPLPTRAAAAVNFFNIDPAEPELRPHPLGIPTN
T1 sequence (P28223 whole entry): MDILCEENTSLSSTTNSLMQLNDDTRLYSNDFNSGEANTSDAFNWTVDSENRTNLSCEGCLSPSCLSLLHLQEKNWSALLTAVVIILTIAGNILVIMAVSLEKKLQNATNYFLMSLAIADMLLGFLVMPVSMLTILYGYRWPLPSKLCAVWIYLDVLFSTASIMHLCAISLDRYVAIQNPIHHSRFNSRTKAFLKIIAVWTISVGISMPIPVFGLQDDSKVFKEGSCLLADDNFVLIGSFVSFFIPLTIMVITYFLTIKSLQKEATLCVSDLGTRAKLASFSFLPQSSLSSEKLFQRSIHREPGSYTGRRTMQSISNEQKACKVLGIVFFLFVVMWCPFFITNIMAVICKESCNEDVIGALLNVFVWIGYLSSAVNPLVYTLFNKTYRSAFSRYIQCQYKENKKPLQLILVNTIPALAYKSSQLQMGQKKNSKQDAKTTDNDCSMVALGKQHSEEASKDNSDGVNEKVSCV
Experimental for 5-HT2A receptor: Test compounds were dissolved in dimethyl sulfoxide (DMSO) at a concentration of 10 mM. Serial dilutions were prepared in a 96-well microplate in assay buffer and eight concentrations were tested. A cellular aequorin-based functional assay was performed with recombinant CHO-K1 cells expressing mitochondrially targeted aequorin, human GPCR and the promiscuous G protein α16 for 5-HT2A. […] After thawing, cells were transferred to assay buffer (DMEM/HAM’s F12 with 0.1% protease-free BSA) and centrifuged. The cell pellet was resuspended in assay buffer and coelenterazine h was added at final concentrations of 5 μM. […] After 1 h of incubation, 50 μL of the cells suspension was dispensed using automatic injectors built into the plate reader POLARstar Omega, (BMG Labtech, Ortenberg, Germany) onto a white opaque 96-well microplates preloaded with test compounds. Immediate light emission generated following calcium mobilization was recorded for 30 s. In antagonist mode, after 30 min of incubation, the reference agonist was added to the above assay mix and light emission was recorded again. The final concentration of the reference agonist was equal to EC80.

For `CCC(Oc1cccc(Cl)c1Cl)c1nc(N)nc(N2CCN(C)CC2)n1` (racemic) [Compound 2, (RS)-4-[1-(2,3-dichlorophenoxy)propyl]-6-(4-methylpiperazin-1-yl)-1,3,5-triazin-2-amine], the Emax amounted to 1% on 5-HT2A receptor (Table S2, read-out: 5-HT2A Antagonist mode Emax); 21 ± 0.6% at 5-HT2A receptor (read-out: 5-HT2AR Agonist Mode Emax); 96% in data set [3] (setting [4]); 5 ± 1.1% in data set [3] (setting [5]). For the same compound, the “Binomial B-Value” in data set [1] (1 µM) was 0.2601; in data set [1] (10 µM), 0.5425. The “Number of Revertants ± SD” value amounted to 12.00 ± 7.55 in data set [1] (1 µM) and 13.33 ± 2.31 in data set [1] (10 µM). Also, in data set [2], the “increase of LDH leakage” value amounted to 86%. The “protective activity against rotenone-induced neurotoxicity” value in the data set with SH-SY5Y cells is “protective activity”. Also, the “Total Distance” value with rats (0.3 mg/kg i.p.) is recorded as 4372 ± 132 cm; in the data set with rats (1 mg/kg i.p.), 3987 ± 281 cm; in the data set with rats (3 mg/kg i.p.), 4595± 191 F(3,23) = 2.9772; NS cm. For the same compound, the “X Ambulation” value is listed as 180 ± 9 in the data set on rats (0.3 mg/kg i.p.), 149 ± 18 in the data set on rats (1 mg/kg i.p.) and 168 ± 6 F(3,23) = 1.9417; NS with rats (3 mg/kg i.p.). For the same compound, the “Y Ambulation” value is on record as 101 ± 9 in the data set with rats (0.3 mg/kg i.p.), 78 ± 9 in the data set with rats (1 mg/kg i.p.) and 115 ± 7 F(3,23) = 3.1727; NS in the data set with rats (3 mg/kg i.p.). Besides, on human 5-HT6R, the Ki is 6 ± 2 nM.
`CCC(Oc1ccccc1)c1nc(N)nc(N2CCN(C)CC2)n1` (racemic) [Compound 3, (RS)-4-(4-methylpiperazin-1-yl)-6-(1-phenoxypropyl)-1,3,5-triazin-2-amine]: the entries for the “Binomial B-Value” in data set [1] (1 µM) and in data set [1] (10 µM) were 0.0001 and 0.0324, respectively. In addition, the entries for the “Number of Revertants ± SD” value in data set [1] (1 µM) and in data set [1] (10 µM) were 0.33 ± 0.58 and 1.67 ± 1.53, respectively. For the same compound, the “protective activity against rotenone-induced neurotoxicity” value in the data set with SH-SY5Y cells was “protective activity”. Further, the “Total Distance” value in the data set with rats (0.3 mg/kg i.p.) is 4033 ± 340 cm; with rats (1 mg/kg i.p.) it was 4102 ± 291 cm; in the data set on rats (3 mg/kg i.p.), 3545 ± 136 F(3,22) = 0.9071; NS cm. The “X Ambulation” value in the data set on rats (0.3 mg/kg i.p.) was 151 ± 16; in the data set on rats (1 mg/kg i.p.) it was 136 ± 15; with rats (3 mg/kg i.p.), 123 ± 5 F(3,22) = 0.6336; NS. The “Y Ambulation” value with rats (0.3 mg/kg i.p.) is listed as 80 ± 8; in the data set on rats (1 mg/kg i.p.), 86 ± 10; with rats (3 mg/kg i.p.) it was 73 ± 5 F(3,22) = 0.3805; NS. The inhibition constant (Ki) on human 5-HT6R is 21 nM. Besides, the Emax in data set [3] (setting [4]) stood at 100%; in data set [3] (setting [5]) it was 9 ± 1.4%.

In general, Emax refers to the maximal effect, on the per cent scale that the assay sets. Broadly, the Ki is the dissociation constant of the complex between target and ligand, obtained from inhibition or displacement.
